Blank lines part the entries; values can stand above or below the molecule they belong to.
How the values were obtained:
human GFAT-1 [1] = biological target: T1, human GFAT-1 (Homo sapiens, UniProt Q06210); experiment: X-ray crystal structure (co-crystallization); assay type: binding
T1 construct: gene GFPT1; full length isoform 2, internal His6-tag inserted between Gly299 and Asp300 (kept), initial Met removed, Sf21 baculovirus (MultiBac), Ni-NTA and SEC; phosphorylated S243 found; dimer in crystal
T1 sequence (Q06210 2-681 isoform Q06210-2): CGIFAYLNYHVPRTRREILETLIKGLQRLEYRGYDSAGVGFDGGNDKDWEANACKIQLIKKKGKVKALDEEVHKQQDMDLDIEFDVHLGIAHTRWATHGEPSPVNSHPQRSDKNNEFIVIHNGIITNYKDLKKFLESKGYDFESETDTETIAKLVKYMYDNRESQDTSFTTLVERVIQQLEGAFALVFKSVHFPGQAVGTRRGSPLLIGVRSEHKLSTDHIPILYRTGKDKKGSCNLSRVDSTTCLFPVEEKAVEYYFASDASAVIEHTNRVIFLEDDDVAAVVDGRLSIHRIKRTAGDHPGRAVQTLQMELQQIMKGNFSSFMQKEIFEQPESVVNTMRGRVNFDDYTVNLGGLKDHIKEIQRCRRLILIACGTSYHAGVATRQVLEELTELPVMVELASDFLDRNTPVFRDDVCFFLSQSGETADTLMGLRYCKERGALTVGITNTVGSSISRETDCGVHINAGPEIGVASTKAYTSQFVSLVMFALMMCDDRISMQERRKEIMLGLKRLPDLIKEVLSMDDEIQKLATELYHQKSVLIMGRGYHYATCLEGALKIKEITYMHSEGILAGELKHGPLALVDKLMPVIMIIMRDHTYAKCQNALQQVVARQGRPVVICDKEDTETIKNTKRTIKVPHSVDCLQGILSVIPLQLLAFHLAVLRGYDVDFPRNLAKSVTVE

human GFAT-1 [2] = biological target: T1, human GFAT-1; experiment: X-ray crystal structure (crystallized with Frc6P); assay type: binding; settings: isomerase site; linear Glc6P modelled, Frc6P not excluded at this resolution
human GFAT-1 [3] = biological target: T1, human GFAT-1; experiment: X-ray crystal structure (soaking); assay type: binding; settings: 5 mM soak, 2 h; UDP-GlcNAc site of isomerase domain; inhibition curve in the GDH-coupled assay only in Figure 4g
human GFAT-1 [4] = biological target: T1, human GFAT-1; experiment: GDH-coupled glutaminase (amidohydrolysis) assay, […] nm; assay type: biochemical; settings: 10 mM L-Gln, 6 mM Frc6P, 1 mM APAD, 1 mM EDTA, 50 mM KCl, 100 mM potassium phosphate pH 7.5, 37 °C; feedback inhibitor bound at isomerase domain (allosteric)

Structure (SMILES): N[C@H]1C(O)O[C@H](COP(=O)(O)O)[C@@H](O)[C@@H]1O (stereo partly drawn) [D-GlcN6P]
X-ray crystal structure (co-crystallization) (human GFAT-1 [1]; 1 mM GlcN6P, with L-Glu, linear sugar in isomerase site): The GlcN6P-bound structure formed the same asymmetric dimer as the Glc6P-bound structure

Structure (SMILES): O=P(O)(O)OC[C@H]1OC(O)[C@H](O)[C@@H](O)[C@@H]1O (some centres unmarked) [Glc6P]
X-ray crystal structure (crystallized with Frc6P) (human GFAT-1 [2]): we decided to model the product Glc6P in our crystal structures

Structure (SMILES): N[C@@H](CCC(=O)O)C(=O)O [L-Glu]
X-ray crystal structure (co-crystallization) (human GFAT-1 [1]; 50 mM L-Glu, glutaminase site of monomer A only): The product L-Glu is bound to the glutaminase active site in one monomer (monomer A)

Structure (SMILES): CC(=O)N[C@H]1[C@@H](OP(=O)(O)OP(=O)(O)OC[C@H]2O[C@@H](n3ccc(=O)[nH]c3=O)[C@H](O)[C@@H]2O)O[C@H](CO)[C@H](O)[C@@H]1O [UDP-GalNAc]
X-ray crystal structure (soaking) (human GFAT-1 [3]): UDP-GalNAc was detected in the UDP-GlcNAc binding site after crystal soaking

IC50 (human GFAT-1 [4]): 43.3 (−2.3/+2.5) µM
Structure (SMILES): CC(=O)N[C@H]1[C@@H](OP(=O)(O)OP(=O)(O)OC[C@H]2O[C@@H](n3ccc(=O)[nH]c3=O)[C@H](O)[C@@H]2O)O[C@H](CO)[C@@H](O)[C@@H]1O [UDP-GlcNAc]

Reference: article PMC7000685, “Loss of GFAT-1 feedback regulation activates the hexosamine pathway that modulates protein homeostasis” (Nature Communications, 2020)
